Columns and labels:
[1] = target: IL-17A(FLAG-Tagged): IL-17RA(His-Tagged) (Homo sapiens, UniProt Q16552, K93Q); assay: IL-17A(FLAG-Tagged): IL-17RA(His-Tagged) Binding Disruption Eu-HTRF Assay, Protocol 1; conditions: Protocol 1, FLAG tagged IL-17A 2.5 nM; simple average if tested more than once
Method in brief: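 IC50 came from a one-site competition fit of the acceptor/donor (665/620 nm) HTRF ratio. His-tagged IL-17RA, Eu-anti-FLAG and D2-anti-His were added after a 1 h rt compound preincubation with FLAG-tagged IL-17A dimer in PBS/0.01% Triton X-100, followed by 2 h at rt before reading.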

[2] = system: IL-17A-induced G-CSF production in human normal keratinocyte (NHK); assay: NHK Assay: IL-17A-induced G-CSF production in human normal keratinocyte; type: cell-based; conditions: IL-17A 5 ng/mL, 24 h, simple average if tested more than once
Method in brief: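 Stimulus rhIL-17A 5 ng/mL final, premixed 1 h rt with compound; adult NHK, 5% FBS, 0.2% DMSO. Viability by CellTiter-Glo vs DMSO.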

Chain of UniProt Q16552 (Q16552 with tags, fused parts or gaps K93Q): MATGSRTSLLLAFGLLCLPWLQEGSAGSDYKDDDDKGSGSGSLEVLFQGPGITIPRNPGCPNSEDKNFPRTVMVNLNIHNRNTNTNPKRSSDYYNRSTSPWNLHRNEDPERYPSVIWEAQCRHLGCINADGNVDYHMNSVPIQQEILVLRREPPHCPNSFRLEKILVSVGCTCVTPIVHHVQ

Row | IC50 [1] [nM] | Compound | IC50 [2] [nM] | IC50 ([2]; Homo sapiens, Keratinocyte) [nM]
1 | 50 to 100 | CC(C)(OC[C@H](NC(=O)c1nonc1C1CC1)c1nc2cc(CN3CC(C(F)(F)F)NC3=O)ccc2[nH]1)C(F)(F)F (stereo in doubt) [Example 33, 4-Cyclopropyl-N—((R)-1-(5-(((R*)-2-oxo-4-(trifluoromethyl)imidazolidin-1-yl)methyl)-1H-benzo[d]imidazol-2-yl)-2-((1,1,1-trifluoro-2-methylpropan-2-yl)oxy)ethyl)-1,2,5-oxadiazole-3-carboxamide] |  | > 100
2 | < 50 | CC(C)(OC[C@H](NC(=O)c1nonc1C1CC1)c1nc2cc([C@@H](C3CC3)N3C[C@@H](C(F)(F)F)NC3=O)ccc2[nH]1)C(F)(F)F [Example 1, 4-Cyclopropyl-N—((R)-1-(5-((R)-cyclopropyl((S)-2-oxo-4-(trifluoromethyl)imidazolidin-1-yl)methyl)-1H-benzo[d]imidazol-2-yl)-2-((1,1,1-trifluoro-2-methylpropan-2-yl)oxy)ethyl)-1,2,5-oxadiazole-3-carboxamide] |  | < 50
3 | < 50 | [2H]C([2H])([2H])C([2H])([2H])n1nccc1C(=O)N[C@@H](COC(C)(C)C(F)(F)F)c1nc2cc([C@@H](C3CC3)N3C[C@@H](C(F)(F)F)NC3=O)ccc2[nH]1 [Example 4, N—((R)-1-(5-((R)-Cyclopropyl((S)-2-oxo-4-(trifluoromethyl)imidazolidin-1-yl)methyl)-1H-benzo[d]imidazol-2-yl)-2-((1,1,1-trifluoro-2-methylpropan-2-yl)oxy)ethyl)-1-(ethyl-d5)-1H-pyrazole-5-carboxamide] |  | < 50
4 | < 50 | CC(C)n1ncnc1C(=O)N[C@@H](COC(C)(C)C(F)(F)F)c1nc2cc([C@@H](C3CC3)N3C[C@@H](C(F)(F)F)NC3=O)ccc2[nH]1 [Example 5, N—((R)-1-(5-((R)-Cyclopropyl((S)-2-oxo-4-(trifluoromethyl)imidazolidin-1-yl)methyl)-1H-benzo[d]imidazol-2-yl)-2-((1,1,1-trifluoro-2-methylpropan-2-yl)oxy)ethyl)-1-isopropyl-1H-1,2,4-triazole-5-carboxamide] |  | < 50
5 | < 50 | Cc1nonc1C(=O)N[C@@H](COC(C)(C)C(F)(F)F)c1nc2cc([C@@H](C3CC3)N3CC(F)(F)CNC3=O)ccc2[nH]1 [Example 23, N—((R)-1-(5-((R)-Cyclopropyl(5,5-difluoro-2-oxotetrahydropyrimidin-1(2H)-yl)methyl)-1H-benzo[d]imidazol-2-yl)-2-((1,1,1-trifluoro-2-methylpropan-2-yl)oxy)ethyl)-4-methyl-1,2,5-oxadiazole-3-carboxamide] |  | < 50
6 | < 50 | CC(C)n1nccc1C(=O)N[C@@H](COC(C)(C)C(F)(F)F)c1nc2cc([C@@H](C3CC3)N3CC(F)(F)CNC3=O)ccc2[nH]1 [Example 24, N—((R)-1-(5-((R)-Cyclopropyl(5,5-difluoro-2-oxotetrahydropyrimidin-1(2H)-yl)methyl)-1H-benzo[d]imidazol-2-yl)-2-((1,1,1-trifluoro-2-methylpropan-2-yl)oxy)ethyl)-1-isopropyl-1H-pyrazole-5-carboxamide] |  | < 50
7 | < 50 | COC[C@H](c1ccc2[nH]c([C@@H](NC(=O)c3nonc3C)[C@@H](C)O[C@@H](C)C(F)(F)F)nc2c1)N1CC(F)(F)CNC1=O [Example 50, N-((1R,2R)-1-(5-((S)-1-(5,5-Difluoro-2-oxotetrahydropyrimidin-1(2H)-yl)-2-methoxyethyl)-1H-benzo[d]imidazol-2-yl)-2-(((S)-1,1,1-trifluoropropan-2-yl)oxy)propyl)-4-methyl-1,2,5-oxadiazole-3-carboxamide] |  | < 50
8 | < 50 | Cc1nonc1C(=O)N[C@@H](COC(C)(C)C(F)(F)F)c1nc2cc([C@@H](C3CC3)N3C[C@@H](C4CC4)NC3=O)ccc2[nH]1 [Example 84, N—((R)-1-(5-((R)-Cyclopropyl((R)-4-cyclopropyl-2-oxoimidazolidin-1-yl)methyl)-1H-benzo[d]imidazol-2-yl)-2-((1,1,1-trifluoro-2-methylpropan-2-yl)oxy)ethyl)-4-methyl-1,2,5-oxadiazole-3-carboxamide] |  | < 50

More lines, now with the values behind:

Row | Compound | IC50 [1] [nM] | IC50 [2] [nM] | IC50 ([2]; Homo sapiens, Keratinocyte) [nM]
9 | COCC(c1ccc2[nH]c([C@H](COC(C)(C)C(F)(F)F)NC(=O)c3nonc3C)nc2c1)N1CC(C)(C)NC1=O (single isomer, unassigned) [Example 49, N—((R)-1-(5-((S*)-1-(4,4-Dimethyl-2-oxoimidazolidin-1-yl)-2-methoxyethyl)-1H-benzo[d]imidazol-2-yl)-2-((1,1,1-trifluoro-2-methylpropan-2-yl)oxy)ethyl)-4-methyl-1,2,5-oxadiazole-3-carboxamide] | > 100 | > 100 | 
10 | COC[C@H](c1ccc2[nH]c(C(COC(C)(C)C(F)(F)F)NC(=O)c3cnn(CC4CC4)n3)nc2c1)N1CC(F)(F)CNC1=O (single isomer, unassigned) [Example 51, 2-(Cyclopropylmethyl)-N—((R*)-1-(5-((S)-1-(5,5-difluoro-2-oxotetrahydropyrimidin-1(2H)-yl)-2-methoxyethyl)-1H-benzo[d]imidazol-2-yl)-2-((1,1,1-trifluoro-2-methylpropan-2-yl)oxy)ethyl)-2H-1,2,3-triazole-4-carboxamide] | < 50 |  | 50 to 100
11 | Cc1nonc1C(=O)NC(COC(C)(C)C(F)(F)F)c1nc2cc([C@@H](COC3CC3)N3CC(F)(F)CNC3=O)ccc2[nH]1 (single isomer, unassigned) [Example 56, N—((R*)-1-(5-((S)-2-Cyclopropoxy-1-(5,5-difluoro-2-oxotetrahydropyrimidin-1(2H)-yl)ethyl)-1H-benzo[d]imidazol-2-yl)-2-((1,1,1-trifluoro-2-methylpropan-2-yl)oxy)ethyl)-4-methyl-1,2,5-oxadiazole-3-carboxamide] | < 50 |  | < 50
12 | Cc1nonc1C(=O)N[C@@H](COC(C)(C)C(F)(F)F)c1nc2cc([C@@H](C3CC3)N3C[C@@H](C(F)(F)F)NC3=O)ccc2[nH]1 [Example 2, N—((R)-1-(5-((R)-Cyclopropyl((S)-2-oxo-4-(trifluoromethyl)imidazolidin-1-yl)methyl)-1H-benzo[d]imidazol-2-yl)-2-((1,1,1-trifluoro-2-methylpropan-2-yl)oxy)ethyl)-4-methyl-1,2,5-oxadiazole-3-carboxamide] | < 50 |  | < 50
13 | CC(C)n1ncc(F)c1C(=O)N[C@@H](COC(C)(C)C(F)(F)F)c1nc2cc([C@@H](C3CC3)N3C[C@@H](C(F)(F)F)NC3=O)ccc2[nH]1 [Example 3, N—((R)-1-(5-((R)-Cyclopropyl((S)-2-oxo-4-(trifluoromethyl)imidazolidin-1-yl)methyl)-1H-benzo[d]imidazol-2-yl)-2-((1,1,1-trifluoro-2-methylpropan-2-yl)oxy)ethyl)-4-fluoro-1-isopropyl-1H-pyrazole-5-carboxamide] | < 50 |  | < 50
14 | CC(C)(OC[C@H](NC(=O)c1nonc1C1CC1)c1nc2cc([C@@H](C3CC3)N3CC(F)(F)CNC3=O)ccc2[nH]1)C(F)(F)F [Example 22, 4-Cyclopropyl-N—((R)-1-(5-((R)-cyclopropyl(5,5-difluoro-2-oxotetrahydropyrimidin-1(2H)-yl)methyl)-1H-benzo[d]imidazol-2-yl)-2-((1,1,1-trifluoro-2-methylpropan-2-yl)oxy)ethyl)-1,2,5-oxadiazole-3-carboxamide] | < 50 |  | < 50
15 | Cc1nonc1C(=O)N[C@@H](COC(C)(C)C(F)(F)F)c1nc2ccc(CN3CC(F)(F)CNC3=O)cc2[nH]1 [Example 28, (R)—N-(1-(6-((5,5-Difluoro-2-oxotetrahydropyrimidin-1(2H)-yl)methyl)-1H-benzo[d]imidazol-2-yl)-2-((1,1,1-trifluoro-2-methylpropan-2-yl)oxy)ethyl)-4-methyl-1,2,5-oxadiazole-3-carboxamide] | < 50 |  | < 50
16 | CC(C)n1nccc1C(=O)N[C@@H](COC(C)(C)C(F)(F)F)c1nc2ccc(CN3CC(F)(F)CNC3=O)cc2[nH]1 [Example 29, (R)—N-(1-(6-((5,5-Difluoro-2-oxotetrahydropyrimidin-1(2H)-yl)methyl)-1H-benzo[d]imidazol-2-yl)-2-((1,1,1-trifluoro-2-methylpropan-2-yl)oxy)ethyl)-1-isopropyl-1H-pyrazole-5-carboxamide] | < 50 |  | < 50
17 | CC(C)(OC[C@H](NC(=O)c1nonc1C1CC1)c1nc2ccc(CN3CC(F)(F)CNC3=O)cc2[nH]1)C(F)(F)F [Example 30, (R)-4-Cyclopropyl-N-(1-(6-((5,5-difluoro-2-oxotetrahydropyrimidin-1(2H)-yl)methyl)-1H-benzo[d]imidazol-2-yl)-2-((1,1,1-trifluoro-2-methylpropan-2-yl)oxy)ethyl)-1,2,5-oxadiazole-3-carboxamide] | < 50 |  | < 50
18 | COC[C@H](c1ccc2[nH]c([C@@H](NC(=O)c3nonc3C)[C@@H](C)O[C@@H](C)C(F)(F)F)nc2c1)N1C[C@@H](C(F)(F)F)NC1=O [Example 62, N-((1R,2R)-1-(5-((S)-2-Methoxy-1-((S)-2-oxo-4-(trifluoromethyl)imidazolidin-1-yl)ethyl)-1H-benzo[d]imidazol-2-yl)-2-(((S)-1,1,1-trifluoropropan-2-yl)oxy)propyl)-4-methyl-1,2,5-oxadiazole-3-carboxamide] | < 50 |  | < 50
